Legend:
human MCHR1 [1] = target: T1, human MCHR1 (Homo sapiens, UniProt Q99705); assay: Human MCH receptor 1 (MCHR1) binding inhibitory activity, binding assay with [125I]-MCH(4-19); details: test compound 0.1 μM, human MCHR1-expressing CHO cell membrane fraction, read-out: Binding inhibition rate % (0.1 μM)
T1 construct: expressed in transfected cells; host or cells: CHO cell clone 57 (described in WO01/82925); membrane fraction
Procedure: Determination of Human MCH Receptor 1 (MCHR1) Binding Inhibitory Activity of Test Compound Using Binding Assay
1. Preparation of Membrane Fraction
Using human MCHR1(=SLC-1 receptor)-expressing CHO cell clone 57 described in WO01/82925, MCHR1-expressing CHO cellular membrane fractions were prepared by the following method.
In phosphate buffered saline (pH 7.4) supplemented with 5 mM EDTA (ethylenediaminetetraacetic acid) were respectively suspended human MCHR1-expressing CHO cells (1×10^8 cells) and centrifuged. Homogenate buffer (10 mL, 10 mM NaHCO3, 5 mM EDTA, pH 7.5, 0.5 mM PMSF (phenylmethylsulfonyl fluoride), 20 mg/L leupeptin, 4 mg/L E-64, 1 mg/L pepstatin A) was added to the pellets of the cells and, using Polytron Homogenizer, the mixture was homogenated. The supernatant obtained after centrifugation at 400×g for 10 min was further centrifuged at 100,000×g for 1 hr to give precipitate of the membrane fraction. The precipitate were suspended in 2 mL of assay buffer [20 mM Tris-HCl (pH 7.5), 5 mM EDTA, 0.5 mM PMSF, 20 mg/L leupeptin, 4 mg/L E-64, 1 mg/L pepstatin A]. The membrane fractions were suspended in assay buffer to a protein concentration of 2 mg/mL, and after dispensing, preserved at −80° C. and used upon thawing each time when in use.
The MCHR1 ligand binding inhibitory activity of the test compound was determined as follows.
An MCHR1-expressing CHO cellular membrane fraction (173 μL) diluted with an assay buffer was dispensed to a 96 well polypropylene plate (3363, Corning). DMSO solution (2 μL), 33 μM cold MCH(1-19) diluted with DMSO solution (2 μL), or a test compound solution diluted with DMSO solution to various concentrations (2 μL) was added, and lastly, [^125I]-MCH(4-19) diluted with assay buffer (hereinafter, sometimes to be referred to as “hot MCH”, 25 μL) was added to each well. The mixture was reacted with stirring at room temperature for 1 hr, and the plate was set on FilterMate Harvester (PerkinElmer). Using a treating glass filter plate (GF/C, PerkinElmer) with polyethyleneimine, which had been previously set, the plate was suction-filtered and washed three times with washing buffer (50 mM Tris-HCl buffer pH 7.5). The glass filter plate was dried, MicroScinti0 (PerkinElmer) was added at 25 μL/well, and the resulting radioactivity was measured by TopCount liquid scintillation counter (PerkinElmer). The binding inhibition rate of the test compound was calculated by the following formula. Binding inhibition (%)=100−(radioactivity upon addition of test compound and hot MCH−radioactivity upon addition of cold MCH and hot MCH solution)/(radioactivity upon addition of DMSO solution and hot MCH−radioactivity upon addition of cold MCH and hot MCH solution)×100
The binding inhibition rates (%) of test compounds (0.1 μM) as measured using human MCHR1-expressing CHO cell are shown in Table 2.

human MCHR1 [2] = target: T1, human MCHR1; assay: MCH receptor 1 antagonistic activity, Ca2+ mobilization assay; assay type: cell-based; details: test compound 0.1 μM; human MCHR1-expressing CHO cells (clone #4); MCH(4-19) 2 nM; read-out: Inhibition rate % (0.1 μM)
Procedure: Measurement of MCH Receptor 1 Antagonistic Activity of Test Compound Using Ca^2+ Mobilization Assay
Using an expression vector plasmid introduced with human MCHR1 gene for expression in animal cells, human MCHR1 gene was introduced into CHO cells (CHO dhfr^−) by Lipofectamine LTX (Invitrogen). The cells were cultured in selection MEMα medium [445 mL of MEMα medium without nucleic acid and added with 5 mL of Penicillin-Streptomycin (Invitrogen) and 50 mL of dialyzed fetal bovine serum]. Colony 24 clones grown in the selection medium, which were human MCHR1 gene-expressing CHO cell candidates, were selected. […] In the following test, this human MCHR1-expressing CHO cell (clone #4) was used. An integrated dispensing function fluorometer (CellLux, PerkinElmer) was used for Ca^2+ mobilization assay. The CHO cells were sown in a 96 well plate (type 3904, Corning) with a black wall and clear well bottom at a density of 20000 cells/well, and cultured in an incubator for about 24 hr at 5% CO2, 37° C. The medium was removed, and the cells were washed with phosphate buffered saline (PBS). A Ca^2+ indicator dye reagent (DOJINDO LABORATORIES, Ca screening no-wash kit Fluo4) was added at 100 μL/well, and the dye was allowed to penetrate into the cell for 30 min in an incubator at 5% CO2, 37° C. The plate was set on a plate reader. First, a test compound solution diluted with an assay buffer [10 mM HEPES (pH 7.4), 1× assay buffer containing 0.1% BSA (DOJINDO LABORATORIES, attached to Ca screening no-wash kit Fluo4)] or DMSO solution was added at 50 μL/well, and then ligand MCH (4-19) peptide (final concentration 2 nM) diluted with assay buffer or DMSO was added at 50 μL/well, during which changes in intracellular fluorescence were measured at 2 second intervals. The antagonistic activity of the test compound was calculated by the following formula and shown as an inhibition rate (%) wherein the intracellular fluorescence activity resulting from the stimulation by the addition of ligand MCH (4-19) peptide was 100% and that of the well added with DMSO solution alone was 0%. inhibitory rate (%)=100−[fluorescence activity upon addition of test compound and MCH(4-19) peptide solution−fluorescence activity upon addition of DMSO solution only]/[fluorescence activity upon addition of DMSO solution and MCH(4-19) peptide solution−fluorescence activity upon addition of DMSO solution only]×100
The inhibition rates (%) of test compounds (0.1 μM) as antagonist activity measured using human MCHR1-expressing CHO cells (clone #4) are shown in the following Table 3.

T1 sequence (Q99705 whole entry): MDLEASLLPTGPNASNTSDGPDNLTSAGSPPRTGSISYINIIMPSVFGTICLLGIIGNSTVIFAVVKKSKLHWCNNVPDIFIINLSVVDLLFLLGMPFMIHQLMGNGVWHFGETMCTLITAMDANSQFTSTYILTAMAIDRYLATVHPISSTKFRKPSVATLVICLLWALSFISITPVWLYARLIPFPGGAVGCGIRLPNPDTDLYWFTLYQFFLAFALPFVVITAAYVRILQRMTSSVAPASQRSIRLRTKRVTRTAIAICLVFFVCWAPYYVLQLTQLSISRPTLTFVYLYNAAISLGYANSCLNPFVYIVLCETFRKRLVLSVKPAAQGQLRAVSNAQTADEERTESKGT

| Compound | inhibition at 0.1 µM (human MCHR1 [1]) | inhibition at 0.1 µM (human MCHR1 [2]) |
| --- | --- | --- |
| COc1cc(-n2ccc3oc(-c4ccc(OC(F)(F)F)cc4)cc3c2=O)ccc1OCC1(C#N)CC1 [Example 28, 1-((2-Methoxy-4-(4-oxo-2-(4-(trifluoromethoxy)phenyl)furo[3,2-c]pyridin-5(4H)-yl)phenoxy)methyl)cyclopropanecarbonitrile] | 63% | 24% |
| Cc1cc(-n2ccc3oc(-c4ccc(Cl)cc4)cc3c2=O)ccc1OCC1(C#N)CC1 [Example 33, 1-((4-(2-(4-Chlorophenyl)-4-oxofuro[3,2-c]pyridin-5(4H)-yl)-2-methylphenoxy)methyl)cyclopropanecarbonitrile] | 84% | 34% |
| COc1cc(-n2ccc3oc(-c4ccc(Cl)cc4)cc3c2=O)ccc1OCC1CCCO1 (stereo not shown) [Example 36, 2-(4-Chlorophenyl)-5-(3-methoxy-4-(tetrahydrofuran-2-ylmethoxy)phenyl)furo[3,2-c]pyridin-4(5H)-one] | 95% | 78% |
| COc1cc(-n2ccc3oc(-c4ccc(Cl)cc4)cc3c2=O)ccc1OCC1CCOC1 (stereo not shown) [Example 39, 2-(4-Chlorophenyl)-5-(3-methoxy-4-(tetrahydrofuran-3-ylmethoxy)phenyl)furo[3,2-c]pyridin-4(5H)-one] | 96% | 84% |

Further lines, results first:

| inhibition at 0.1 µM (human MCHR1 [1]) | inhibition at 0.1 µM (human MCHR1 [2]) | Compound |
| --- | --- | --- |
| 91% | 95% | COc1cc(-n2ccc3oc(-c4ccc(Cl)cc4)cc3c2=O)ccc1OCC1COC1 [Example 40, 2-(4-Chlorophenyl)-5-(3-methoxy-4-(oxetan-3-ylmethoxy)phenyl)furo[3,2-c]pyridin-4(5H)-one] |
| 97% | 92% | COc1cc(-n2ccc3oc(-c4ccc(Cl)cc4)cc3c2=O)ccc1OCC1(C)COC1 [Example 41, 2-(4-Chlorophenyl)-5-(3-methoxy-4-((3-methyloxetan-3-yl)methoxy)phenyl)furo[3,2-c]pyridin-4(5H)-one] |
| 92% | 99% | COc1cc(-n2ccc3oc(-c4ccc(Cl)cc4)cc3c2=O)ccc1OCC1CCO1 (stereo not shown) [Example 43, 2-(4-Chlorophenyl)-5-(3-methoxy-4-(oxetan-2-ylmethoxy)phenyl)furo[3,2-c]pyridin-4(5H)-one] |
| 85% | 45% | COc1cc(-n2ccc3oc(-c4ccc(Cl)cc4)cc3c2=O)ccc1OCC1CC1(F)F (stereo not shown) [Example 44, 2-(4-Chlorophenyl)-5-(4-((2,2-difluorocyclopropyl)methoxy)-3-methoxyphenyl)furo[3,2-c]pyridin-4(5H)-one] |

Reference: patent US9505772B2, “Aromatic ring compound” (TAKEDA PHARMACEUTICAL COMPANY LIMITED, priority 2012, dated 2016)
